# Several values for one entry are separate records, joined by “and”; a condition that tells them apart may be missing. Equal entries are not always repeated. Inconclusive results and toxic doses are left out.
# Tested on: BDF1 mice, P1081 chloroleukemia ip, survival T/C
# Experiment: NCI In Vivo Anticancer Drug Screen. Data for tumor model P1081 Chloroleukemia (intraperitoneal) in B6D2F1 (BDF1) mice
# Settings: endpoint: mean survival time, higher = longer survival
# Experimental: The antitumor activity of compounds was measured in mice bearing transplantable tumors. Survival or tumor size were measured and the results are expressed as the measurement made in the treated group (T) divided by the measurement made in the vehicle treated control group (C). The tumor model used in this assay is P1081 Chloroleukemia (intraperitoneal) in B6D2F1 (BDF1) mice
# [1] = dose: 10.0 mg/kg/injection, schedule: Q01DX010 (ip), vehicle: saline
# [2] = dose: 20.0 mg/kg/injection, schedule: Q01DX010 (ip), vehicle: saline
# [3] = dose: 40.0 mg/kg/injection, schedule: Q01DX010 (ip), vehicle: saline
# [4] = dose: 50.0 mg/kg/injection, schedule: Q01DX010 (ip), vehicle: saline
# [5] = dose: 100.0 mg/kg/injection, schedule: Q01DX010 (ip), vehicle: saline
# [6] = dose: 200.0 mg/kg/injection, schedule: Q01DX010 (ip), vehicle: saline
# [7] = dose: 400.0 mg/kg/injection, schedule: Q01DX010 (ip), vehicle: saline
# [8] = dose: 12.5 mg/kg/injection, schedule: Q01DX Z (ip), vehicle: carboxymethylcellulose (CMC)
# [9] = dose: 25.0 mg/kg/injection, schedule: Q01DX Z (ip), vehicle: carboxymethylcellulose (CMC)
# [10] = dose: 62.5 mg/kg/injection, schedule: Q01DX010 (ip), vehicle: saline
# [11] = dose: 125.0 mg/kg/injection, schedule: Q01DX010 (ip), vehicle: saline
smiles,measurement,setting,value
N=C(N)SCc1c2ccccc2c(CSC(=N)N)c2ccccc12,T/C,"dose: 2.5 mg/kg/injection, schedule: Q01DX010 (ip), vehicle: saline",220 % of control
same,T/C,"dose: 5.0 mg/kg/injection, schedule: Q01DX010 (ip), vehicle: saline",183 % of control and 210 % of control
same,T/C,[1],155 % of control and 240 % of control
same,T/C,[2],172 % of control and 200 % of control
same,T/C,[3],122 % of control
CS(=O)(=O)OCC(O)C(O)C(O)C(O)COS(C)(=O)=O (stereo unspecified),T/C,"dose: 25.0 mg/kg/injection, schedule: Q01DX010 (ip), vehicle: saline",110 % of control
same,T/C,[4],110 % of control and 100 % of control
same,T/C,[5],110 % of control and 105 % of control
same,T/C,[6],111 % of control and 120 % of control
same,T/C,[7],111 % of control
CC(=O)NC1=C(N2CC2)C(=O)C(NC(C)=O)=C(N2CC2)C1=O,T/C,"dose: 250.0 micrograms/kg/injection, schedule: Q01DX010 (ip), vehicle: saline",188 % of control and 210 % of control
same,T/C,"dose: 500.0 micrograms/kg/injection, schedule: Q01DX010 (ip), vehicle: saline",255 % of control and 270 % of control
same,T/C,"dose: 1000.0 micrograms/kg/injection, schedule: Q01DX010 (ip), vehicle: saline",115 % of control
O=C(O)CCCc1ccc(N(CCCl)CCCl)cc1,T/C,"dose: 0.8 mg/kg/injection, schedule: Q01DX Z (ip), vehicle: carboxymethylcellulose (CMC)",90 % of control
same,T/C,"dose: 1.6 mg/kg/injection, schedule: Q01DX Z (ip), vehicle: carboxymethylcellulose (CMC)",92 % of control
same,T/C,"dose: 3.1 mg/kg/injection, schedule: Q01DX Z (ip), vehicle: carboxymethylcellulose (CMC)",102 % of control
same,T/C,"dose: 3.13 mg/kg/injection, schedule: Q01DX010 (ip), vehicle: saline",105 % of control and 120 % of control
same,T/C,"dose: 6.2 mg/kg/injection, schedule: Q01DX Z (ip), vehicle: carboxymethylcellulose (CMC)",113 % of control
same,T/C,"dose: 6.25 mg/kg/injection, schedule: Q01DX010 (ip), vehicle: saline",105 % of control and 115 % of control
same,T/C,"dose: 6.25 mg/kg/injection, schedule: Q01DX Z (ip), vehicle: carboxymethylcellulose (CMC)",86 % of control
same,T/C,[8],107 % of control
same,T/C,[9],114 % of control
same,T/C,"dose: 50.0 mg/kg/injection, schedule: Q01DX Z (ip), vehicle: carboxymethylcellulose (CMC)",102 % of control
Cc1cc2nc3c(=O)[nH]c(=O)nc-3n(CC(O)C(O)C(O)C(O)CO)c2cc1C (stereo unspecified),T/C,[4],88 % of control and 100 % of control
same,T/C,[5],88 % of control and 90 % of control
same,T/C,[6],90 % of control and 100 % of control
same,T/C,[7],100 % of control
CN(Cc1cnc2nc(N)nc(N)c2n1)c1c(Cl)cc(C(=O)NC(CCC(=O)O)C(=O)O)cc1Cl (stereo unspecified),T/C,[8],101 % of control
same,T/C,[9],102 % of control
COc1cc2c(c(OC)c1OC)-c1ccc(OC)c(=O)cc1[C@@H](NC(C)=O)CC2,T/C,"dose: 0.08 mg/kg/injection, schedule: Q01DX Z (ip), vehicle: saline",112 % of control
same,T/C,"dose: 0.16 mg/kg/injection, schedule: Q01DX Z (ip), vehicle: saline",114 % of control
same,T/C,"dose: 0.6 mg/kg/injection, schedule: Q01DX Z (ip), vehicle: saline",151 % of control
same,T/C,"dose: 0.63 mg/kg/injection, schedule: Q01DX Z (ip), vehicle: saline",177 % of control
c1ccc(CCSc2ncnc3nc[nH]c23)cc1,T/C,[10],120 % of control
same,T/C,[11],120 % of control
O=c1[nH]cc(F)c(=O)[nH]1,T/C,"dose: 1.56 mg/kg/injection, schedule: Q01DX Z (ip), vehicle: saline",99 % of control
same,T/C,[1],161 % of control and 165 % of control
same,T/C,"dose: 12.5 mg/kg/injection, schedule: Q01DX Z (ip), vehicle: saline",150 % of control
same,T/C,[2],200 % of control and 230 % of control
same,T/C,[3],110 % of control and 94 % of control
same,T/C,"dose: 50.0 mg/kg/injection, schedule: Q01DX Z (ip), vehicle: saline",108 % of control
same,T/C,"dose: 100.0 mg/kg/injection, schedule: Q01DX Z (ip), vehicle: saline",96 % of control
CC(=O)N(C)C,T/C,[10],100 % of control
same,T/C,[11],90 % of control and 95 % of control
same,T/C,"dose: 250.0 mg/kg/injection, schedule: Q01DX010 (ip), vehicle: saline",90 % of control and 95 % of control
same,T/C,"dose: 500.0 mg/kg/injection, schedule: Q01DX010 (ip), vehicle: saline",90 % of control and 95 % of control

# Reference: PubChem BioAssay AID246 (DTP/NCI, 2004)
